In PubChem BioAssay AID1963422 (Molecular Pharmacology Branch, DTP, NCI, 2024):

Tested on: 463943-066-T-J2-PDC complex spheroid growth
Assay: Anticancer human tumor 463943-066-T-J2-PDC patient-derived colon adenocarcinoma cell line growth inhibition [Asc]
Conditions: for IC50: curve of first compound; for viability, T/C: stronger effect = lower value
In short: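 Stromal components (HUVEC and hMSC) are co-assembled with the cancer cells into multicellular spheroids. Drugs are then added singly or paired, at concentrations falling by half-log increments from a clinically achievable maximum, capped at 10 microM without known Cmax.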

[1] = second compound 0.00316 µM, first compound 0.00316 µM
[2] = second compound 0.00316 µM, first compound 0.01 µM
[3] = second compound 0.00316 µM, first compound 0.0316 µM
[4] = second compound 0.00316 µM, first compound 0.1 µM
[5] = second compound 0.00316 µM, first compound 0.316 µM
[6] = second compound 0.00316 µM, first compound 1 µM
[7] = second compound 0.01 µM, first compound 0.00316 µM
[8] = second compound 0.01 µM, first compound 0.01 µM
[9] = second compound 0.01 µM, first compound 0.0316 µM
[10] = second compound 0.01 µM, first compound 0.1 µM
[11] = second compound 0.01 µM, first compound 0.316 µM
[12] = second compound 0.01 µM, first compound 1 µM
[13] = second compound 0.0316 µM, first compound 0.00316 µM
[14] = second compound 0.0316 µM, first compound 0.01 µM
[15] = second compound 0.0316 µM, first compound 0.0316 µM
[16] = second compound 0.0316 µM, first compound 0.1 µM
[17] = second compound 0.0316 µM, first compound 0.316 µM
[18] = second compound 0.0316 µM, first compound 1 µM
[19] = second compound 0.1 µM, first compound 0.00316 µM
[20] = second compound 0.1 µM, first compound 0.01 µM
[21] = second compound 0.1 µM, first compound 0.0316 µM
[22] = second compound 0.1 µM, first compound 0.1 µM
[23] = second compound 0.1 µM, first compound 0.316 µM
[24] = second compound 0.1 µM, first compound 1 µM
[25] = second compound 0.316 µM, first compound 0.00316 µM
[26] = second compound 0.316 µM, first compound 0.01 µM
[27] = second compound 0.316 µM, first compound 0.0316 µM
[28] = second compound 0.316 µM, first compound 0.1 µM
[29] = second compound 0.316 µM, first compound 0.316 µM
[30] = second compound 0.316 µM, first compound 1 µM
[31] = second compound 1 µM, first compound 0.00316 µM
[32] = second compound 1 µM, first compound 0.01 µM
[33] = second compound 1 µM, first compound 0.0316 µM
[34] = second compound 1 µM, first compound 0.1 µM
[35] = second compound 1 µM, first compound 0.316 µM
[36] = second compound 1 µM, first compound 1 µM
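Further: compound exposure lasted 7 days.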
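Wherever viability, T/C is given: 100% = DMSO vehicle control wells.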

SMILES: CCN1CCN(Cc2ccc(Nc3ncc(F)c(-c4cc(F)c5nc(C)n(C(C)C)c5c4)n3)nc2)CC1 + CNC(C)C(=O)NC1CN(S(=O)(=O)c2cccc(S(=O)(=O)N3CCC4CCC(C(=O)NC(c5ccccc5)c5ccccc5)N4C(=O)C(NC(=O)C(C)NC)C3)c2)CCC2CCC(C(=O)NC(c3ccccc3)c3ccccc3)N2C1=O
- IC50 (second compound 0.00316 µM): > 1000 nM
- IC50 (second compound 0.01 µM): > 1000 nM
- IC50 (second compound 0.0316 µM): > 1000 nM
- IC50 (second compound 0.1 µM): > 1000 nM
- IC50 (second compound 0.316 µM): > 1000 nM
- IC50 (second compound 1 µM): > 1000 nM
- viability, T/C [1]: 87.7%
- viability, T/C [2]: 92.7%
- viability, T/C [3]: 88%
- viability, T/C [4]: 93.6%
- viability, T/C [5]: 109%
- viability, T/C [6]: 120%
- viability, T/C [7]: 99.2%
- viability, T/C [8]: 102%
- viability, T/C [9]: 99.8%
- viability, T/C [10]: 92.2%
- viability, T/C [11]: 123%
- viability, T/C [12]: 121%
- viability, T/C [13]: 103%
- viability, T/C [14]: 108%
- viability, T/C [15]: 94.9%
- viability, T/C [16]: 101%
- viability, T/C [17]: 116%
- viability, T/C [18]: 128%
- viability, T/C [19]: 89%
- viability, T/C [20]: 92.3%
- viability, T/C [21]: 89.6%
- viability, T/C [22]: 95.5%
- viability, T/C [23]: 113%
- viability, T/C [24]: 110%
- viability, T/C [25]: 92.3%
- viability, T/C [26]: 103%
- viability, T/C [27]: 99.7%
- viability, T/C [28]: 89.6%
- viability, T/C [29]: 109%
- viability, T/C [30]: 118%
- viability, T/C [31]: 88.8%
- viability, T/C [32]: 92.5%
- viability, T/C [33]: 84%
- viability, T/C [34]: 94%
- viability, T/C [35]: 120%
- viability, T/C [36]: 117%

SMILES: NC(=O)C(=Cn1cnc(-c2cc(C(F)(F)F)cc(C(F)(F)F)c2)n1)c1cncnc1 + CNC(C)C(=O)NC1CN(S(=O)(=O)c2cccc(S(=O)(=O)N3CCC4CCC(C(=O)NC(c5ccccc5)c5ccccc5)N4C(=O)C(NC(=O)C(C)NC)C3)c2)CCC2CCC(C(=O)NC(c3ccccc3)c3ccccc3)N2C1=O
- IC50 (second compound 0.00316 µM): > 300 nM
- IC50 (second compound 0.01 µM): > 300 nM
- IC50 (second compound 0.0316 µM): > 300 nM
- IC50 (second compound 0.1 µM): > 300 nM
- IC50 (second compound 0.316 µM): > 300 nM
- IC50 (second compound 1 µM): > 300 nM
- viability, T/C (second compound 0.00316 µM, first compound 0.000949 µM): 84.3%
- viability, T/C (second compound 0.00316 µM, first compound 0.003 µM): 77.2%
- viability, T/C (second compound 0.00316 µM, first compound 0.00949 µM): 77.4%
- viability, T/C (second compound 0.00316 µM, first compound 0.03 µM): 78.7%
- viability, T/C (second compound 0.00316 µM, first compound 0.0949 µM): 73.2%
- viability, T/C (second compound 0.00316 µM, first compound 0.3 µM): 64.8%
- viability, T/C (second compound 0.01 µM, first compound 0.000949 µM): 95.8%
- viability, T/C (second compound 0.01 µM, first compound 0.003 µM): 87.6%
- viability, T/C (second compound 0.01 µM, first compound 0.00949 µM): 80.8%
- viability, T/C (second compound 0.01 µM, first compound 0.03 µM): 84.9%
- viability, T/C (second compound 0.01 µM, first compound 0.0949 µM): 85.1%
- viability, T/C (second compound 0.01 µM, first compound 0.3 µM): 65.3%
- viability, T/C (second compound 0.0316 µM, first compound 0.000949 µM): 82.4%
- viability, T/C (second compound 0.0316 µM, first compound 0.003 µM): 81.2%
- viability, T/C (second compound 0.0316 µM, first compound 0.00949 µM): 80.4%
- viability, T/C (second compound 0.0316 µM, first compound 0.03 µM): 88.3%
- viability, T/C (second compound 0.0316 µM, first compound 0.0949 µM): 83.9%
- viability, T/C (second compound 0.0316 µM, first compound 0.3 µM): 66.6%
- viability, T/C (second compound 0.1 µM, first compound 0.000949 µM): 90.7%
- viability, T/C (second compound 0.1 µM, first compound 0.003 µM): 82.6%
- viability, T/C (second compound 0.1 µM, first compound 0.00949 µM): 82.5%
- viability, T/C (second compound 0.1 µM, first compound 0.03 µM): 85%
- viability, T/C (second compound 0.1 µM, first compound 0.0949 µM): 80.5%
- viability, T/C (second compound 0.1 µM, first compound 0.3 µM): 67.3%
- viability, T/C (second compound 0.316 µM, first compound 0.000949 µM): 85.2%
- viability, T/C (second compound 0.316 µM, first compound 0.003 µM): 82.4%
- viability, T/C (second compound 0.316 µM, first compound 0.00949 µM): 82.5%
- viability, T/C (second compound 0.316 µM, first compound 0.03 µM): 78.9%
- viability, T/C (second compound 0.316 µM, first compound 0.0949 µM): 80.3%
- viability, T/C (second compound 0.316 µM, first compound 0.3 µM): 64.2%
- viability, T/C (second compound 1 µM, first compound 0.000949 µM): 78.2%
- viability, T/C (second compound 1 µM, first compound 0.003 µM): 91.9%
- viability, T/C (second compound 1 µM, first compound 0.00949 µM): 78.5%
- viability, T/C (second compound 1 µM, first compound 0.03 µM): 77.4%
- viability, T/C (second compound 1 µM, first compound 0.0949 µM): 73.3%
- viability, T/C (second compound 1 µM, first compound 0.3 µM): 58.5%

SMILES: O=C(c1ccc(F)c(F)c1Nc1ccc(I)cc1F)N1CC(O)([C@@H]2CCCCN2)C1 + CNC(C)C(=O)NC1CN(S(=O)(=O)c2cccc(S(=O)(=O)N3CCC4CCC(C(=O)NC(c5ccccc5)c5ccccc5)N4C(=O)C(NC(=O)C(C)NC)C3)c2)CCC2CCC(C(=O)NC(c3ccccc3)c3ccccc3)N2C1=O
- IC50 (second compound 0.00316 µM): 125 nM
- IC50 (second compound 0.01 µM): 343 nM
- IC50 (second compound 0.0316 µM): 304 nM
- IC50 (second compound 0.1 µM): 173 nM
- IC50 (second compound 0.316 µM): 229 nM
- IC50 (second compound 1 µM): 238 nM
- viability, T/C [1]: 88.3%
- viability, T/C [2]: 76.9%
- viability, T/C [3]: 59.4%
- viability, T/C [4]: 58.4%
- viability, T/C [5]: 40.4%
- viability, T/C [6]: 20.8%
- viability, T/C [7]: 94.6%
- viability, T/C [8]: 88.3%
- viability, T/C [9]: 71.8%
- viability, T/C [10]: 65.9%
- viability, T/C [11]: 51.3%
- viability, T/C [12]: 36.9%
- viability, T/C [13]: 102%
- viability, T/C [14]: 81.6%
- viability, T/C [15]: 69%
- viability, T/C [16]: 67.2%
- viability, T/C [17]: 55%
- viability, T/C [18]: 32.6%
- viability, T/C [19]: 85.1%
- viability, T/C [20]: 82.9%
- viability, T/C [21]: 64.4%
- viability, T/C [22]: 56%
- viability, T/C [23]: 46.8%
- viability, T/C [24]: 24.7%
- viability, T/C [25]: 91.1%
- viability, T/C [26]: 79.2%
- viability, T/C [27]: 66.5%
- viability, T/C [28]: 60%
- viability, T/C [29]: 49.9%
- viability, T/C [30]: 31.8%
- viability, T/C [31]: 82%
- viability, T/C [32]: 68.1%
- viability, T/C [33]: 66.3%
- viability, T/C [34]: 61.4%
- viability, T/C [35]: 47.4%
- viability, T/C [36]: 33.4%
